Measurements published in patent US10463644B2, “Uses of sesquiterpene lactone compounds and their derivatives in drugs preparation” (ACCENDATECH, priority 2013, dated 2019).
Read-outs that look alike come from different tables or passages of the source.

How the values were obtained:
[1] = tested on: cancer stem cells; test: Survival rate of cancer stem cells after test compound is added (flow cytometry, Annexin V-FITC/PI, clinical specimen); format: cell-based, patient; conditions: Homo sapiens, 18 h
Summary of the method: (§1)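 Survival was determined in clinical specimens after an 18 h compound treatment, using Annexin V-FITC/PI apoptosis staining and flow cytometry.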

[2] = tested on: PGE2 secreted by synoviocyte; test: Content of PGE2 in culture supernatant of synoviocyte of RA model rats given test compound; format: in vivo; conditions: rat RA model, dose 30 mg/kg.2d; normal control 8.34 ± 1.29, NaCl 32.44 ± 10.32
Summary of the method: (§2)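 Rat RA model; dosing 30 mg/kg.2d; normal and NaCl control groups. Synoviocyte culture supernatant collected; TNF-α and PGE2 measured by one established method, IL-1β by a separate method.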

[3] = tested on: IL-1β secreted by synoviocyte; test: Content of IL-1β in culture supernatant of synoviocyte of RA model rats given test compound; format: in vivo; conditions: rat RA model, dose 30 mg/kg.2d; normal control 0.16 ± 0.034, NaCl 0.49 ± 0.136
Summary of the method: as §2

[4] = tested on: TNF-α secreted by synoviocyte; test: Content of TNF-α in culture supernatant of synoviocyte of RA model rats given test compound; format: in vivo; conditions: rat RA model, dose 30 mg/kg.2d; normal control 0.38 ± 0.027, NaCl 0.74 ± 0.098
Summary of the method: as §2

[5] = tested on: cancer cells; test: Survival rate of cancer cells after test compound is added (flow cytometry, Annexin V-FITC/PI, clinical specimen); format: cell-based, patient; conditions: Homo sapiens, 18 h, read-out: Survival rate (%) All cells (Stem cells and ordinary cells)
Summary of the method: as §1

[6] = Head and neck squamous cell carcinomas

Work on CN(C)C[C@@H]1C(=O)O[C@H]2[C@H]1CCC1(CC1)[C@@H]1CCC3(CC3)[C@H]21 [Compound 27] yielded a viability at 10 µM ([1]; AML) of 87%, a viability at 20 µM ([1]; AML) of 77% and a viability at 10 µM ([1]; Brain glioma) of 84%. For the same molecule, the viability at 20 µM ([1]; Brain glioma) was 78%, the viability at 10 µM ([1]; Brain tumor) was 87% and the viability at 20 µM ([1]; Brain tumor) was 76%. For the same molecule, the viability at 10 µM ([1]; Breast cancer) was 84%, the viability at 20 µM ([1]; Breast cancer) was 76% and the viability at 10 µM ([1]; CLL) was 87%. The viability at 20 µM ([1]; CLL) was 82%, the viability at 10 µM ([1]; CML) was 87% and the viability at 20 µM ([1]; CML) was 76%. It also gave a viability at 10 µM ([1]; Children hepatoblastoma) of 82%, a viability at 20 µM ([1]; Children hepatoblastoma) of 79% and a viability at 10 µM ([1]; Colon adenocarcinoma) of 82%. The viability at 20 µM ([1]; Colon adenocarcinoma) was 78%, the viability at 10 µM ([1]; Colorectal cancer) was 85% and the viability at 20 µM ([1]; Colorectal cancer) was 79%. It also gave a viability at 10 µM ([1]; Gastric cancer) of 81%, a viability at 20 µM ([1]; Gastric cancer) of 75% and a viability at 10 µM ([1]; Gastrointestinal tumor) of 86%. It also gave a viability at 20 µM ([1]; Gastrointestinal tumor) of 77%, a viability at 10 µM ([1]; Glioma) of 80% and a viability at 20 µM ([1]; Glioma) of 75%. For the same molecule, the viability at 10 µM [1, 6] was 81%, the viability at 20 µM [1, 6] was 75% and the viability at 10 µM ([1]; Laryngeal cancer) was 85%. It also gave a viability at 20 µM ([1]; Laryngeal cancer) of 77%, a viability at 10 µM ([1]; Liver cancer) of 86% and a viability at 20 µM ([1]; Liver cancer) of 77%. For the same molecule, the viability at 10 µM ([1]; Lung adenocarcinoma) was 82%, the viability at 20 µM ([1]; Lung adenocarcinoma) was 76% and the viability at 10 µM ([1]; Lung cancer) was 79%. It also gave a viability at 20 µM ([1]; Lung cancer) of 72%, a viability at 10 µM ([1]; Malignant melanoma) of 82% and a viability at 20 µM ([1]; Malignant melanoma) of 74%. It also gave a viability at 10 µM ([1]; Nasopharynx cancer) of 82%, a viability at 20 µM ([1]; Nasopharynx cancer) of 74% and a viability at 10 µM ([1]; Ovarian cancer) of 83%. It also gave a viability at 20 µM ([1]; Ovarian cancer) of 77%, a viability at 10 µM ([1]; Pancreatic cancer) of 86% and a viability at 20 µM ([1]; Pancreatic cancer) of 78%. It also gave a viability at 10 µM ([1]; Prostate cancer) of 84%, a viability at 20 µM ([1]; Prostate cancer) of 78% and a viability at 10 µM ([1]; Retinoblastoma) of 85%. It also gave a viability at 20 µM ([1]; Retinoblastoma) of 80%, a viability at 10 µM ([1]; Skin cancer) of 85% and a viability at 20 µM ([1]; Skin cancer) of 74%. For the same molecule, the “Content of PGE2 in culture supernatant of synoviocyte (x ± s)” value [2] was 24.75 ± 2.66 ng/mL, the “Content of IL-1β in culture supernatant of synoviocyte (x ± s)” value [3] was 0.41 ± 0.047 ng/mL and the “Content of TNF-α in culture supernatant of synoviocyte (x ± s)” value [4] was 0.54 ± 0.066 ng/mL. It also gave a viability at 10 µM ([5]; AML) of 90%, a viability at 20 µM ([5]; AML) of 86% and a viability at 10 µM ([5]; Brain glioma) of 91%. For the same molecule, the viability at 20 µM ([5]; Brain glioma) was 88%, the viability at 10 µM ([5]; Brain tumor) was 94% and the viability at 20 µM ([5]; Brain tumor) was 87%. It also gave a viability at 10 µM ([5]; Breast cancer) of 88%, a viability at 20 µM ([5]; Breast cancer) of 85% and a viability at 10 µM ([5]; CLL) of 93%. For the same molecule, the viability at 20 µM ([5]; CLL) was 88%, the viability at 10 µM ([5]; CML) was 94% and the viability at 20 µM ([5]; CML) was 87%. It also gave a viability at 10 µM ([5]; Children hepatoblastoma) of 88%, a viability at 20 µM ([5]; Children hepatoblastoma) of 87% and a viability at 10 µM ([5]; Colon adenocarcinoma) of 89%. For the same molecule, the viability at 20 µM ([5]; Colon adenocarcinoma) was 87%, the viability at 10 µM ([5]; Colorectal cancer) was 93% and the viability at 20 µM ([5]; Colorectal cancer) was 86%. It also gave a viability at 10 µM ([5]; Gastric cancer) of 87%, a viability at 20 µM ([5]; Gastric cancer) of 83% and a viability at 10 µM ([5]; Gastrointestinal tumor) of 90%. For the same molecule, the viability at 20 µM ([5]; Gastrointestinal tumor) was 86%, the viability at 10 µM ([5]; Glioma) was 88% and the viability at 20 µM ([5]; Glioma) was 82%. For the same molecule, the viability at 10 µM [5, 6] was 87%, the viability at 20 µM [5, 6] was 83% and the viability at 10 µM ([5]; Laryngeal cancer) was 92%. The viability at 20 µM ([5]; Laryngeal cancer) was 89%, the viability at 10 µM ([5]; Liver cancer) was 90% and the viability at 20 µM ([5]; Liver cancer) was 86%. It also gave a viability at 10 µM ([5]; Lung adenocarcinoma) of 89%, a viability at 20 µM ([5]; Lung adenocarcinoma) of 86% and a viability at 10 µM ([5]; Lung cancer) of 88%. It also gave a viability at 20 µM ([5]; Lung cancer) of 81%, a viability at 10 µM ([5]; Malignant melanoma) of 91% and a viability at 20 µM ([5]; Malignant melanoma) of 85%. For the same molecule, the viability at 10 µM ([5]; Nasopharynx cancer) was 91%, the viability at 20 µM ([5]; Nasopharynx cancer) was 85% and the viability at 10 µM ([5]; Ovarian cancer) was 88%. For the same molecule, the viability at 20 µM ([5]; Ovarian cancer) was 84%, the viability at 10 µM ([5]; Pancreatic cancer) was 93% and the viability at 20 µM ([5]; Pancreatic cancer) was 92%. For the same molecule, the viability at 10 µM ([5]; Prostate cancer) was 91%, the viability at 20 µM ([5]; Prostate cancer) was 88% and the viability at 10 µM ([5]; Retinoblastoma) was 94%. For the same molecule, the viability at 20 µM ([5]; Retinoblastoma) was 86%, the viability at 10 µM ([5]; Skin cancer) was 94% and the viability at 20 µM ([5]; Skin cancer) was 81%.
